The text below walks through data of patent US10266550B2, “Bacterial topoisomerase I inhibitors with antibacterial activity” (The Florida International University Board of Trustees, priority 2016, dated 2019).

In one assay the target is E. coli topoisomerase I (Escherichia coli (strain K12), UniProt P06612). As to the kind of experiment: biochemical. It counts as biochemical. As for the experimental part: Recombinant E. coli topoisomerase I and gyrase expressed in E. coli were purified as described previously.
Chain of E. coli topoisomerase I (P06612 whole entry, looked up): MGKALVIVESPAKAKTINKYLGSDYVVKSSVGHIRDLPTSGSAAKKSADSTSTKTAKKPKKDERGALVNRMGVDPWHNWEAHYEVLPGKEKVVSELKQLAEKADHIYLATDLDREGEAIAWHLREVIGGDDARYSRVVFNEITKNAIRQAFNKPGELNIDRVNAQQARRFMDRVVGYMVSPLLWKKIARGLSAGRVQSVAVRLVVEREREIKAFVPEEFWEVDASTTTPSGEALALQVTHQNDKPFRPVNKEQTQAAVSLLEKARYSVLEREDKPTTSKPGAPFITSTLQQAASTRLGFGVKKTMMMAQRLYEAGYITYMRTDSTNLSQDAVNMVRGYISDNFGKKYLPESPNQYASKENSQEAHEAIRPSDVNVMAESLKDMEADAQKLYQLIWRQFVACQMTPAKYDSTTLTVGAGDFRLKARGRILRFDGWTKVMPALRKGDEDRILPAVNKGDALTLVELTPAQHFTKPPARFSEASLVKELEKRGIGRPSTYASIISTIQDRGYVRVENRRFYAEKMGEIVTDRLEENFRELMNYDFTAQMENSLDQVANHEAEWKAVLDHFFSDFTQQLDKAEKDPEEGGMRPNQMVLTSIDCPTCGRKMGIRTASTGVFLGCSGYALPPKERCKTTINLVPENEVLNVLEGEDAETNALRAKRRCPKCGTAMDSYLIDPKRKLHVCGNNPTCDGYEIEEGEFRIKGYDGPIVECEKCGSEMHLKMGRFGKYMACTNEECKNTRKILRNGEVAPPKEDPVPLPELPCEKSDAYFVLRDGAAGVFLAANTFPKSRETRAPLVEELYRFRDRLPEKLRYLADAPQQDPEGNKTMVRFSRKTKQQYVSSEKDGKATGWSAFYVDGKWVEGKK
E. coli Topoisomerase I Relaxation Activity Inhibition Assay
The relaxation activity of E. coli topoisomerase I was assayed in a buffer containing 10 mM Tris-HCl, pH 8.0, 50 mM NaCl, 0.1 mg/mL gelatin, and 0.5 mM MgCl2. Half microliter from the appropriate stock solutions of compounds dissolved in the solvent (DMSO) or the solvent alone (control) was mixed with 9.5 μL of the reaction buffer containing 10 ng of enzyme before the addition of 10 μL of reaction buffer containing 200 ng of supercoiled pBAD/Thio plasmid DNA purified by cesium chloride gradient as substrate. Following incubation at 37° C. for 30 min, the reactions were terminated by the addition of 4 μL of a stop buffer (50% glycerol, 50 mM EDTA, and 0.5% (v/v) bromophenol blue), and analyzed by agarose gel electrophoresis. The gels were stained in ethidium bromide and photographed under UV light.

For the next assay, the target named is Human topoisomerase I (Homo sapiens (Human), UniProt P11387). As to the kind of experiment: Human topoisomerase I relaxation inhibition assay. It counts as biochemical. The settings on record: read-out: Topoisomerase inhibitory activity (IC50) Human topo I (type IB). How it is done:
Human topoisomerase I relaxation assays were carried out with 0.5 U of enzyme in reaction buffer supplied by the manufacturer. The enzyme was mixed with the indicated concentration of compound dissolved before 200 ng of supercoiled pBAD/Thio plasmid DNA was added in the same buffer, for a final volume of 20 μL. Following incubation at 37° C. for 30 minutes, the reactions were terminated with a buffer containing 5% SDS, 0.25% bromophenol blue, and 25% glycerol, and analyzed by agarose gel electrophoresis.
Human topoisomerase I and topoisomerase IIα were purchased from TopoGen (Buena vista, CO, USA).

The subject of a further assay is E. coli (MG1655) WT. Description: MIC, microdilution in Mueller-Hinton Broth. The settings on record: Escherichia coli, MG1655; wild type; read-out: Whole cell based antibacterial activity (MIC) E. coli (MG1655) WT.
Assay [1] concerns all the test bacteria strains. As to the kind of experiment: Whole cell antibacterial activity across all test strains. Format: cell-based. The settings on record: range over strains; read-out: MICs against all the test bacteria strains.

One may read the pIC50 as the IC50 on a negative log10 scale, so that one unit is a factor of ten.

The structures appear in SMILES notation. pIC50: −log10 of the molar value. Values after ≈ are worked out from the molar mass of the structure shown.

Chain of Human topoisomerase I (P11387 whole entry): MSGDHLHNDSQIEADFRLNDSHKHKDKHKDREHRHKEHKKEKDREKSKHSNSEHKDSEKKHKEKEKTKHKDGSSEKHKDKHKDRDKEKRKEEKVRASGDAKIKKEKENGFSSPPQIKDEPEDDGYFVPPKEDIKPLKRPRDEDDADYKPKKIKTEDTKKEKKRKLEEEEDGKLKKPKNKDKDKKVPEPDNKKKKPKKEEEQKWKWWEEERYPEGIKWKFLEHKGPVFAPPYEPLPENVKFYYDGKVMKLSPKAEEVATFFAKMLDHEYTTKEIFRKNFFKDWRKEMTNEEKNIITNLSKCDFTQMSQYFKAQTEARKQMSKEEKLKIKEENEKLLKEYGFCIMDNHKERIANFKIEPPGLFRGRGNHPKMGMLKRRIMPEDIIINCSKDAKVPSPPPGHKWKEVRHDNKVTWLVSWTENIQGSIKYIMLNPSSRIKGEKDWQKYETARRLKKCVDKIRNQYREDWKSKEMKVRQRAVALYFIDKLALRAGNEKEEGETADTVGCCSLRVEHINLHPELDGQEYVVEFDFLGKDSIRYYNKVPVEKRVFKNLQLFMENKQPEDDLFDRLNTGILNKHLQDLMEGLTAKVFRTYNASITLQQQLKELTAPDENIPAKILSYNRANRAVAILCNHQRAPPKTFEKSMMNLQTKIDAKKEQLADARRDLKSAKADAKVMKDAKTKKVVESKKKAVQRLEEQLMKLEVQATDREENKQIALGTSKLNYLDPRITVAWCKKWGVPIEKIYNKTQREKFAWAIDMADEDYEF

Consider `CN1CCN(c2c(F)cc3c(=O)c(C(=O)O)cn4c3c2Oc2cc(N)ccc2-4)CC1` [Compound 11a, 9-Amino-5-fluoro-6-(4-methylpiperazin-1-yl)-3-oxo-3H-pyrido[3,2,1-kl]phenoxazine-2-carboxylic acid], for which the pIC50 against E. coli topoisomerase I (Topoisomerase inhibitory activity (IC50) E. coli topo I (type IA), relaxation of supercoiled plasmid DNA) is 6.01 to 6.62; on Human topoisomerase I, 4.81. At E. coli topoisomerase I (experimental, converted from IC50), the “PIC50 (pIC50 = −log IC50)” value was found to be 6.32. Moreover, the figures for the MIC (with E. coli (MG1655) WT; in assay [1]) were 6.25 µM (≈ 2.57 µg/mL) and 0.78 to 7.6 µM (≈ 0.32 to 3.12 µg/mL), respectively.
